According to patent US20250222146A1, “Radiopharmaceuticals Targeting Somatostatin Receptor 2 and Uses Thereof” (RayzeBio, Inc., priority 2023, published 2025):
Numbered stars: 1 amine (or outer) side, 2 acyl side, 3 side chain; on linkers, the order of the positions; unused ones are H or OH. Square brackets hold non-standard residues; d marks the D form. Peptide text beside a SMILES is read from it. * marks the point of attachment. DOTA(Lu)NH(CH2)6NHCOCH2 = O=C(CN1CCN2CCN3CCN(CC1)CC(=O)[O][Lu]([O]C(=O)C2)[O]C(=O)C3)NCCCCCCNC(=O)C*; X6 = O=C(CN1CCN2CCN3CCN(CC1)CC(=O)[O][Lu]([O]C(=O)C2)[O]C(=O)C3)NCCOCCOCCOCCNC(=O)C*; DOTA(Lu) = O=C1CN2CCN3CCN(CC(=O)*)CCN(CC2)CC(=O)[O][Lu]([O]1)[O]C(=O)C3; Ala(piperidin-4-yl) = O=C([C@H](CC1CCN([*:3])CC1)N[*:1])[*:2]; dTrp(βS-Me) = C[C@@H](c1c[nH]c2ccccc12)[C@@H](N)C(=O)O; βMeTrp(2S,3R) = C[C@H](c1c[nH]c2ccccc12)[C@H](N)C(=O)O; X4 = C[C@@H](c1ccccc1)[C@H](N[*:1])C(=O)[*:2]; Phe(3R-Me) = C[C@H](c1ccccc1)[C@H](N)C(=O)O; X16 = NC1CCC(C[C@H](N[*:1])C(=O)[*:2])CC1; Phe(3-OMe) = COc1cccc(C[C@H](N)C(=O)O)c1; dNMeW = CN[C@H](Cc1c[nH]c2ccccc12)C(=O)O; Dip = N[C@H](C(=O)O)C(c1ccccc1)c1ccccc1; Gly(cPent) = N[C@H](C(=O)O)C1CCCC1; 3Pal = N[C@@H](Cc1cccnc1)C(=O)O; 4Pal = N[C@@H](Cc1ccncc1)C(=O)O; NMehCys = CN[C@@H](CCS)C(=O)O; NMeK = CN[C@@H](CCCCN)C(=O)O; NMeC = CN[C@@H](CS)C(=O)O

Molecular target: SSTR2 (Homo sapiens, UniProt P30874)
Test: SSTR binding affinity by radioligand binding competition assay ([125I]-Tyr11-Somatostatin, membrane extracts)
Details: SSTR2 Ki, radioligand competition, [125I]-Tyr11-Somatostatin 0.1 nM, membrane extracts; Ki from IC50 by Cheng Prusoff

SSTR2, sequence (P30874 whole entry): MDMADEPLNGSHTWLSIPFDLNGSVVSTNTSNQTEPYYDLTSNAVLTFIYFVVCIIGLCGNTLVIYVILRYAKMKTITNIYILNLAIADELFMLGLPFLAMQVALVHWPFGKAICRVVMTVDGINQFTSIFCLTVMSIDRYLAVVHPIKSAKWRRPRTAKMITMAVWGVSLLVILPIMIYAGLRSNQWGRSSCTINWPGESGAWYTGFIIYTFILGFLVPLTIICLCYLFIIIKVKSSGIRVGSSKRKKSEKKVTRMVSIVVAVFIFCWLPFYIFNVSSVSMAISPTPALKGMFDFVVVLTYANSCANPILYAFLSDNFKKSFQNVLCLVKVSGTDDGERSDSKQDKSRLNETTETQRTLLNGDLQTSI

Compound | Ki [nM]
CC(C)[C@@H]1NC(=O)[C@H](CCCCN)NC(=O)[C@@H](Cc2c[nH]c3ccccc23)NC(=O)[C@H](Cc2ccc(O)cc2)NC(=O)[C@H](CSCC(=O)NCCCCCCNC(=O)CN2CCN3CCN4CCN(CC2)CC(=O)[O][Lu]([O]C(=O)C3)[O]C(=O)C4)N(C)C(=O)[C@H](Cc2ccccc2)NC1=O [RB-0002674] (cyclo(F[NMeC](DOTA(Lu)NH(CH2)6NHCOCH2)Y[dW]KV)) | 1 to 3.33

Same assay, conditions: radioligand competition, [125I]-Tyr11-Somatostatin 0.1 nM, membrane extracts; Ki from IC50 by Cheng Prusoff; read-out: SSTR2 Ki

Compound | Ki [nM]
C[C@@H](O)[C@@H]1NC(=O)[C@H](CCCCN)NC(=O)[C@@H]([C@@H](C)c2c[nH]c3ccccc23)NC(=O)[C@H](Cc2cccnc2)NC(=O)[C@H](CCSCC(=O)NCCCCCCNC(=O)CN2CCN3CCN4CCN(CC2)CC(=O)[O][Lu]([O]C(=O)C3)[O]C(=O)C4)N(C)C(=O)[C@H](Cc2ccccc2)NC1=O [RB-0003382] (cyclo([3Pal][dTrp(βS-Me)]KTF[NMehCys](DOTA(Lu)NH(CH2)6NHCOCH2))) | < 1
C[C@@H](O)[C@@H]1NC(=O)[C@H](CCCCN)NC(=O)[C@@H](Cc2c[nH]c3ccccc23)NC(=O)[C@H](Cc2ccc(O)cc2)NC(=O)[C@H](CCCCCNC(=O)CN2CCN3CCN4CCN(CC2)CC(=O)[O][Lu]([O]C(=O)C3)[O]C(=O)C4)N(C)C(=O)[C@H](Cc2ccccc2)NC1=O [RB-0004536] | < 1
C[C@@H](O)[C@@H]1NC(=O)[C@H](CCCCN)NC(=O)[C@@H](Cc2c[nH]c3ccccc23)NC(=O)[C@H](Cc2ccc(O)cc2)NC(=O)[C@H](CNC(=O)[C@@H](CC(=O)O)NC(=O)CCCCCNC(=O)CN2CCN3CCN4CCN(CC2)CC(=O)[O][Lu]([O]C(=O)C3)[O]C(=O)C4)N(C)C(=O)[C@H](Cc2ccccc2)NC1=O [RB-0005734] | 1 to 3.33
C[C@@H](O)[C@@H]1NC(=O)[C@H](CCCCN)NC(=O)[C@@H](Cc2c[nH]c3ccccc23)NC(=O)[C@H](Cc2ccncc2)NC(=O)[C@H](CCSCC(=O)NCCCCCCNC(=O)CN2CCN3CCN4CCN(CC2)CC(=O)[O][Lu]([O]C(=O)C3)[O]C(=O)C4)N(C)C(=O)[C@H]([C@@H](C)c2ccccc2)NC1=O [RB-0003447] (cyclo([4Pal][dW]KT[X4][NMehCys](DOTA(Lu)NH(CH2)6NHCOCH2))) | 3.33 to 10
CC(C)[C@@H]1NC(=O)[C@H](CCCCN)NC(=O)[C@@H](Cc2c[nH]c3ccccc23)NC(=O)[C@H](Cc2ccc(O)cc2)NC(=O)[C@H](CCSCC(=O)NCCCCCCNC(=O)CN2CCN3CCN4CCN(CC2)CC(=O)[O][Lu]([O]C(=O)C3)[O]C(=O)C4)N(C)C(=O)[C@H](CC(N)=O)NC1=O [RB-0005253] (cyclo(KVN[NMehCys](DOTA(Lu)NH(CH2)6NHCOCH2)Y[dW])) | 3.33 to 10
C[C@@H](O)[C@@H]1NC(=O)[C@H](CC2CCNCC2)NC(=O)[C@H](Cc2c[nH]c3ccccc23)NC(=O)[C@H](Cc2ccc(O)cc2)NC(=O)[C@H](CCSCC(=O)NCCOCCOCCOCCNC(=O)CN2CCN3CCN4CCN(CC2)CC(=O)[O][Lu]([O]C(=O)C3)[O]C(=O)C4)N(C)C(=O)[C@H](Cc2ccccc2)NC1=O [RB-0005992] (cyclo(F[NMehCys](X6)YW[Ala(piperidin-4-yl)]T)) | 3.33 to 10
C[C@@H](O)[C@@H]1NC(=O)[C@H](CC2CCNCC2)NC(=O)[C@@H]([C@@H](C)c2c[nH]c3ccccc23)NC(=O)[C@H](Cc2ccc(O)cc2)NC(=O)[C@H](CCCCNC(=O)CN2CCN3CCN4CCN(CC2)CC(=O)[O][Lu]([O]C(=O)C3)[O]C(=O)C4)N(C)C(=O)[C@H](Cc2ccncc2)NC1=O [RB-0006170] (cyclo([4Pal][NMeK](DOTA(Lu))Y[dTrp(βS-Me)][Ala(piperidin-4-yl)]T)) | 3.33 to 10
COc1cccc(C[C@@H]2NC(=O)[C@H](CCCCNC(=O)CN3CCN4CCN5CCN(CC3)CC(=O)[O][Lu]([O]C(=O)C4)[O]C(=O)C5)N(C)C(=O)[C@H](Cc3ccccc3)NC(=O)[C@H]([C@@H](C)O)NC(=O)[C@H](CC3CCNCC3)NC(=O)[C@@H]([C@@H](C)c3c[nH]c4ccccc34)NC2=O)c1 [RB-0006209] (cyclo(F[NMeK](DOTA(Lu))[Phe(3-OMe)][dTrp(βS-Me)][Ala(piperidin-4-yl)]T)) | 1 to 3.33
COc1ccc(C[C@@H]2NC(=O)[C@H](CCCCNC(=O)CN3CCN4CCN5CCN(CC3)CC(=O)[O][Lu]([O]C(=O)C4)[O]C(=O)C5)N(C)C(=O)[C@H](Cc3ccccc3)NC(=O)[C@H]([C@@H](C)O)NC(=O)[C@H](CC3CCNCC3)NC(=O)[C@@H]([C@@H](C)c3c[nH]c4ccccc34)NC2=O)cc1 [RB-0006139] (cyclo(F[NMeK](DOTA(Lu))Y(Me)[dTrp(βS-Me)][Ala(piperidin-4-yl)]T)) | 33.3 to 100
C[C@@H](O)[C@@H]1NC(=O)[C@H](CCCCN)N(C)C(=O)[C@@H](Cc2c[nH]c3ccccc23)N(C)C(=O)[C@H](Cc2ccc(O)cc2)NC(=O)[C@H](CCSCC(=O)NCCCCCCNC(=O)CN2CCN3CCN4CCN(CC2)CC(=O)[O][Lu]([O]C(=O)C3)[O]C(=O)C4)N(C)C(=O)[C@H](Cc2ccccc2)NC1=O [RB-0003455] (cyclo(F[NMehCys](DOTA(Lu)NH(CH2)6NHCOCH2)Y[dNMeW][NMeK]T)) | < 1
C[C@@H]1NC(=O)[C@H](CCCCN)NC(=O)[C@@H](Cc2c[nH]c3ccccc23)NC(=O)[C@H](Cc2ccc(O)cc2)NC(=O)[C@H](CCSCC(=O)NCCCCCCNC(=O)CN2CCN3CCN4CCN(CC2)CC(=O)[O][Lu]([O]C(=O)C3)[O]C(=O)C4)N(C)C(=O)[C@H](Cc2ccccc2)NC1=O [RB-0005744] (cyclo(AF[NMehCys](DOTA(Lu)NH(CH2)6NHCOCH2)Y[dW]K)) | < 1
C[C@@H](O)[C@@H]1NC(=O)[C@H](CCCCN)NC(=O)[C@@H](Cc2c[nH]c3ccccc23)NC(=O)[C@H](Cc2ccc(O)cc2)NC(=O)[C@H](CNC(=O)CCCCCNC(=O)CN2CCN3CCN4CCN(CC2)CC(=O)[O][Lu]([O]C(=O)C3)[O]C(=O)C4)N(C)C(=O)[C@H](Cc2ccccc2)NC1=O [RB-0005728] | 3.33 to 10
C[C@H](c1ccccc1)[C@@H]1NC(=O)[C@H]([C@@H](C)O)NC(=O)[C@H](CCCCN)NC(=O)[C@@H](Cc2c[nH]c3ccccc23)NC(=O)[C@H](Cc2ccncc2)NC(=O)[C@H](CCSCC(=O)NCCCCCCNC(=O)CN2CCN3CCN4CCN(CC2)CC(=O)[O][Lu]([O]C(=O)C3)[O]C(=O)C4)N(C)C1=O [RB-0003449] (cyclo([4Pal][dW]KT[Phe(3R-Me)][NMehCys](DOTA(Lu)NH(CH2)6NHCOCH2))) | 10 to 33.3
C[C@@H](O)[C@@H]1NC(=O)[C@H](CC2CCNCC2)NC(=O)[C@@H]([C@@H](C)c2c[nH]c3ccccc23)NC(=O)[C@H](C(c2ccccc2)c2ccccc2)NC(=O)[C@H](CCCCNC(=O)CN2CCN3CCN4CCN(CC2)CC(=O)[O][Lu]([O]C(=O)C3)[O]C(=O)C4)N(C)C(=O)[C@H](Cc2ccccc2)NC1=O [RB-0006239] (cyclo([Dip][dTrp(βS-Me)][Ala(piperidin-4-yl)]TF[NMeK](DOTA(Lu)))) | 10 to 33.3
C[C@@H](O)[C@@H]1NC(=O)[C@H](CC2CCC(N)CC2)NC(=O)[C@@H]([C@@H](C)c2c[nH]c3ccccc23)NC(=O)[C@H](Cc2ccc(O)cc2)NC(=O)[C@H](CCCCNC(=O)CN2CCN3CCN4CCN(CC2)CC(=O)[O][Lu]([O]C(=O)C3)[O]C(=O)C4)N(C)C(=O)[C@H](Cc2ccccc2)NC1=O (stereo partly shown) [RB-0006387] (cyclo(F[NMeK](DOTA(Lu))Y[dTrp(βS-Me)][X16]T)) | < 1
C[C@@H](O)[C@@H]1NC(=O)[C@H](CCCCN)NC(=O)[C@@H](Cc2c[nH]c3ccccc23)NC(=O)[C@H](Cc2ccc(O)cc2)NC(=O)[C@H](CNC(=O)[C@H](CC(=O)O)NC(=O)CCCCCNC(=O)CN2CCN3CCN4CCN(CC2)CC(=O)[O][Lu]([O]C(=O)C3)[O]C(=O)C4)N(C)C(=O)[C@H](Cc2ccccc2)NC1=O [RB-0005730] | < 1
C[C@@H](O)[C@@H]1NC(=O)[C@H](CCCCN)NC(=O)[C@@H](Cc2c[nH]c3ccccc23)NC(=O)[C@H](Cc2ccc(O)cc2)NC(=O)[C@H](CCSCC(=O)NCCCCCCNC(=O)CN2CCN3CCN4CCN(CC2)CC(=O)[O][Lu]([O]C(=O)C3)[O]C(=O)C4)N(C)C(=O)[C@H](Cc2ccncc2)NC1=O [RB-0003277] (cyclo([4Pal][NMehCys](DOTA(Lu)NH(CH2)6NHCOCH2)Y[dW]KT)) | 1 to 3.33
CN1C(=O)[C@H](Cc2ccccc2)NC(=O)[C@H](C2CCCC2)NC(=O)[C@H](CCCCN)NC(=O)[C@@H](Cc2c[nH]c3ccccc23)NC(=O)[C@H](Cc2ccc(O)cc2)NC(=O)[C@@H]1CCSCC(=O)NCCCCCCNC(=O)CN1CCN2CCN3CCN(CC1)CC(=O)[O][Lu]([O]C(=O)C2)[O]C(=O)C3 [RB-0004623] (cyclo(F[NMehCys](DOTA(Lu)NH(CH2)6NHCOCH2)Y[dW]K[Gly(cPent)])) | < 1
C[C@H](c1c[nH]c2ccccc12)[C@@H]1NC(=O)[C@H](Cc2ccc(O)cc2)NC(=O)[C@H](CCCCNC(=O)CN2CCN3CCN4CCN(CC2)CC(=O)[O][Lu]([O]C(=O)C3)[O]C(=O)C4)N(C)C(=O)[C@H](Cc2ccccc2)NC(=O)[C@H]([C@@H](C)O)NC(=O)[C@H](CC2CCNCC2)NC1=O [RB-0006069] (cyclo(F[NMeK](DOTA(Lu))Y[βMeTrp(2S,3R)][Ala(piperidin-4-yl)]T)) | 3.33 to 10
C[C@@H](O)[C@@H]1NC(=O)[C@H](CCCCN)NC(=O)[C@@H](Cc2c[nH]c3ccccc23)NC(=O)[C@H](Cc2ccc(O)cc2)NC(=O)[C@H](CCSCC(=O)NCCCC[C@@H](NC(=O)CN2CCN3CCN4CCN(CC2)CC(=O)[O][Lu]([O]C(=O)C3)[O]C(=O)C4)C(=O)O)N(C)C(=O)[C@H](Cc2ccccc2)NC1=O [RB-0005278] | 1 to 3.33

Same assay, conditions: read-out: SSTR2 Ki; radioligand competition, [125I]-Tyr11-Somatostatin 0.1 nM, membrane extracts; Ki from IC50 by Cheng Prusoff

Compound | Ki [nM]
C[C@@H](O)[C@@H]1NC(=O)[C@H](CCCCN)NC(=O)[C@@H](Cc2c[nH]c3ccccc23)NC(=O)[C@H](Cc2ccc(O)cc2)NC(=O)[C@H](CCCCC(=O)NCCCCCCNC(=O)CN2CCN(CC(=O)O)CCN(CC(=O)O)CCN(CC(=O)O)CC2)N(C)C(=O)[C@H](Cc2ccccc2)NC1=O [RB-0003055] | < 1
